Source: ChEMBL document CHEMBL1201862, “PubChem BioAssay data set” (2004)
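Cultured in 96-well plates, cells were exposed to test compound for 48 hours across five concentrations. GI50: concentration for 50% inhibition of growth.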 Calls of active or inactive are those of the source. No stated cut-off is given here; in the data, active = GI50 up to about 1.1 µM and inactive = higher.

Tests used:
Assay in all cases: inhibition of tumour cell growth, NCI panel, 48 h
TK-10 = system: TK-10
ACHN = system: ACHN
HCT-116 = system: HCT-116
LOX IMVI = system: LOX IMVI
MOLT-4 = system: MOLT-4
NCI-H226 = system: NCI-H226
RXF 631 = system: RXF 631
SN12C = system: SN12C
K562 = system: K562
SNB-19 = system: SNB-19
M19-MEL = system: M19-MEL
SF-295 = system: SF-295
DMS-273 = system: DMS-273
CAKI-1 = system: CAKI-1
RPMI-8226 = system: RPMI-8226
IGROV-1 = system: IGROV-1
SK-MEL-2 = system: SK-MEL-2
KM-20L2 = system: KM-20L2
SNB-75 = system: SNB-75
U-251 = system: U-251
UACC-62 = system: UACC-62
SF-539 = system: SF-539
EKVX = system: EKVX
CCRF-CEM = system: CCRF-CEM
NCI-H23 = system: NCI-H23
XF498 = system: XF498
SK-OV-3 = system: SK-OV-3
OVCAR-3 = system: OVCAR-3
786-0 = system: 786-0
M14 = system: M14
KM12 = system: KM12
SF-268 = system: SF-268
HT-29 = system: HT-29
HL-60 = system: HL-60
SW-620 = system: SW-620
HOP-92 = system: HOP-92
Malme-3M = system: Malme-3M
SNB-78 = system: SNB-78
SR = system: SR
SK-MEL-28 = system: SK-MEL-28
HCT-15 = system: HCT-15
DLD-1 = system: DLD-1
UACC-257 = system: UACC-257
LXFL 529 = system: LXFL 529
SK-MEL-5 = system: SK-MEL-5
A549 = system: A549
NCI-H522 = system: NCI-H522
UO-31 = system: UO-31
OVCAR-8 = system: OVCAR-8
RXF 393 = system: RXF 393
OVCAR-5 = system: OVCAR-5
A498 = system: A498
NCI-H460 = system: NCI-H460
HOP-62 = system: HOP-62
MDA-N = system: MDA-N
MDA-MB-435 = system: MDA-MB-435
PC-3 = system: PC-3
BT-549 = system: BT-549
OVCAR-4 = system: OVCAR-4
HOP-18 = system: HOP-18
Hs-578T = system: Hs-578T
MCF7 = system: MCF7
DU-145 = system: DU-145
T47D = system: T47D
HCC 2998 = system: HCC 2998
COLO 205 = system: COLO 205
DMS-114 = system: DMS-114

`Cc1ccc(S(=O)(=O)CC(=O)CC(=O)C(=O)Nc2cccc(C(F)(F)F)c2)cc1` was tested, and the GI50 (TK-10) was > 100 µM (inactive), the GI50 (ACHN) was > 100 µM (inactive) and the GI50 (HCT-116) was 44.4 µM (inactive). For the same compound, the GI50 (LOX IMVI) was > 100 µM (inactive), the GI50 (MOLT-4) was > 100 µM (inactive) and the GI50 (NCI-H226) was > 100 µM (inactive). For the same compound, the GI50 (RXF 631) was > 100 µM (inactive), the GI50 (SN12C) was > 100 µM (inactive) and the GI50 (K562) was > 100 µM (inactive). The GI50 (SNB-19) was > 100 µM (inactive), the GI50 (M19-MEL) was > 100 µM (inactive) and the GI50 (SF-295) was > 100 µM (inactive). For the same compound, the GI50 (DMS-273) was > 100 µM (inactive), the GI50 (CAKI-1) was > 100 µM (inactive) and the GI50 (RPMI-8226) was > 100 µM (inactive). The GI50 (IGROV-1) was > 100 µM (inactive), the GI50 (SK-MEL-2) was > 100 µM (inactive) and the GI50 (KM-20L2) was > 100 µM (inactive). For the same compound, the GI50 (SNB-75) was 47.6 µM (inactive), the GI50 (U-251) was > 100 µM (inactive) and the GI50 (UACC-62) was > 100 µM (inactive). The GI50 (SF-539) was > 100 µM (inactive), the GI50 (EKVX) was > 100 µM (inactive) and the GI50 (CCRF-CEM) was > 100 µM (inactive). The GI50 (NCI-H23) was > 100 µM (inactive), the GI50 (XF498) was > 100 µM (inactive) and the GI50 (SK-OV-3) was > 100 µM (inactive). The GI50 (OVCAR-3) was > 100 µM (inactive), the GI50 (786-0) was > 100 µM (inactive) and the GI50 (M14) was > 100 µM (inactive). The GI50 (KM12) was > 100 µM (inactive), the GI50 (SF-268) was > 100 µM (inactive) and the GI50 (HT-29) was 55.3 µM (inactive). The GI50 (HL-60) was 97.1 µM (inactive), the GI50 (SW-620) was > 100 µM (inactive) and the GI50 (HOP-92) was > 100 µM (inactive). The GI50 (Malme-3M) was 81.3 µM (inactive), the GI50 (SNB-78) was > 100 µM (inactive) and the GI50 (SR) was > 100 µM (inactive). The GI50 (SK-MEL-28) was > 100 µM (inactive), the GI50 (HCT-15) was greater than 100 µM and the GI50 (DLD-1) was > 100 µM (inactive). For the same compound, the GI50 (UACC-257) was > 100 µM (inactive), the GI50 (LXFL 529) was > 100 µM (inactive) and the GI50 (SK-MEL-5) was > 100 µM (inactive). For the same compound, the GI50 (A549) was > 100 µM (inactive), the GI50 (NCI-H522) was > 100 µM (inactive) and the GI50 (UO-31) was > 100 µM (inactive).

In the case of `CCNC(CCCC(NCC)P(=O)(O)O)P(=O)(O)O` (stereo unspecified), the GI50 (TK-10) is reported as > 100 µM (inactive), the GI50 (HCT-116) is reported as > 100 µM (inactive) and the GI50 (MOLT-4) is reported as > 100 µM (inactive). For the same compound, the GI50 (NCI-H226) was > 100 µM (inactive), the GI50 (RXF 631) was > 100 µM (inactive) and the GI50 (OVCAR-8) was > 100 µM (inactive). For the same compound, the GI50 (RXF 393) was > 100 µM (inactive), the GI50 (SNB-19) was > 100 µM (inactive) and the GI50 (M19-MEL) was > 100 µM (inactive). The GI50 (SF-295) was > 100 µM (inactive), the GI50 (OVCAR-5) was > 100 µM (inactive) and the GI50 (IGROV-1) was > 100 µM (inactive). For the same compound, the GI50 (KM-20L2) was > 100 µM (inactive), the GI50 (U-251) was > 100 µM (inactive) and the GI50 (UACC-62) was > 100 µM (inactive). For the same compound, the GI50 (CCRF-CEM) was > 100 µM (inactive), the GI50 (NCI-H23) was > 100 µM (inactive) and the GI50 (SK-OV-3) was > 100 µM (inactive). For the same compound, the GI50 (M14) was > 100 µM (inactive), the GI50 (KM12) was > 100 µM (inactive) and the GI50 (HT-29) was > 100 µM (inactive). The GI50 (A498) was > 100 µM (inactive), the GI50 (HL-60) was > 100 µM (inactive) and the GI50 (HOP-92) was > 100 µM (inactive). For the same compound, the GI50 (NCI-H460) was > 100 µM (inactive), the GI50 (SNB-78) was > 100 µM (inactive) and the GI50 (SR) was > 100 µM (inactive). The GI50 (SK-MEL-28) was > 100 µM (inactive), the GI50 (UACC-257) was > 100 µM (inactive) and the GI50 (HOP-62) was > 100 µM (inactive). For the same compound, the GI50 (A549) was > 100 µM (inactive), the GI50 (NCI-H522) was > 100 µM (inactive) and the GI50 (UO-31) was > 100 µM (inactive).

`O=C(Nc1ccc(Cl)cc1)NS(=O)(=O)c1ccc2c(c1)CCC2` [SULOFENUR] was tested, and the GI50 (TK-10) was 40.5 µM (inactive), the GI50 (ACHN) was 29.4 µM (inactive) and the GI50 (HCT-116) was 26.2 µM (inactive). The GI50 (LOX IMVI) was 37.6 µM (inactive), the GI50 (MOLT-4) was 26.4 µM (inactive) and the GI50 (NCI-H226) was 37.9 µM (inactive). For the same compound, the GI50 (MDA-N) was 28 µM (inactive), the GI50 (OVCAR-8) was 40.8 µM (inactive) and the GI50 (SN12C) was 39.2 µM (inactive). For the same compound, the GI50 (K562) was 10.2 µM (inactive), the GI50 (MDA-MB-435) was 17.6 µM (inactive) and the GI50 (PC-3) was 19.1 µM (inactive). For the same compound, the GI50 (RXF 393) was 27.9 µM (inactive), the GI50 (SNB-19) was 40.9 µM (inactive) and the GI50 (M19-MEL) was > 68.7 µM (inactive). For the same compound, the GI50 (SF-295) was 46.7 µM (inactive), the GI50 (DMS-273) was 32.4 µM (inactive) and the GI50 (CAKI-1) was 42.9 µM (inactive). The GI50 (OVCAR-5) was > 43.8 µM (inactive), the GI50 (BT-549) was 32.6 µM (inactive) and the GI50 (RPMI-8226) was 24.4 µM (inactive). For the same compound, the GI50 (OVCAR-4) was 54.8 µM (inactive), the GI50 (IGROV-1) was 12.3 µM (inactive) and the GI50 (SK-MEL-2) was 43.8 µM (inactive). For the same compound, the GI50 (KM-20L2) was 37.8 µM (inactive), the GI50 (SNB-75) was > 55.6 µM (inactive) and the GI50 (U-251) was 30.7 µM (inactive). The GI50 (UACC-62) was 23.9 µM (inactive), the GI50 (SF-539) was 28.3 µM (inactive) and the GI50 (HOP-18) was 42.8 µM (inactive). For the same compound, the GI50 (EKVX) was 36.5 µM (inactive), the GI50 (Hs-578T) was 0.209 µM (active) and the GI50 (CCRF-CEM) was 29.9 µM (inactive). For the same compound, the GI50 (NCI-H23) was 28.1 µM (inactive), the GI50 (MCF7) was 24.1 µM (inactive) and the GI50 (DU-145) was 24 µM (inactive). For the same compound, the GI50 (XF498) was 34.1 µM (inactive), the GI50 (SK-OV-3) was 25.8 µM (inactive) and the GI50 (OVCAR-3) was 24.3 µM (inactive). For the same compound, the GI50 (786-0) was 35.3 µM (inactive), the GI50 (M14) was 37.9 µM (inactive) and the GI50 (T47D) was 16.4 µM (inactive). The GI50 (KM12) was 36.1 µM (inactive), the GI50 (HCC 2998) was 31.6 µM (inactive) and the GI50 (SF-268) was 49.2 µM (inactive). The GI50 (HT-29) was 61.1 µM (inactive), the GI50 (A498) was 45 µM (inactive) and the GI50 (HL-60) was 2.4 µM (inactive). For the same compound, the GI50 (COLO 205) was 29.8 µM (inactive), the GI50 (SW-620) was 35.3 µM (inactive) and the GI50 (NCI-H460) was 24.4 µM (inactive). The GI50 (Malme-3M) was 24.5 µM (inactive), the GI50 (SNB-78) was > 47 µM (inactive) and the GI50 (SR) was > 57 µM (inactive). For the same compound, the GI50 (SK-MEL-28) was 43.9 µM (inactive), the GI50 (HCT-15) was 35.6 µM and the GI50 (DMS-114) was 35.2 µM (inactive). For the same compound, the GI50 (DLD-1) was 44.4 µM (inactive), the GI50 (UACC-257) was 50.7 µM (inactive) and the GI50 (LXFL 529) was 31.5 µM (inactive). For the same compound, the GI50 (HOP-62) was 32.2 µM (inactive), the GI50 (SK-MEL-5) was 26.9 µM (inactive) and the GI50 (A549) was 32.7 µM (inactive). For the same compound, the GI50 (NCI-H522) was 27.9 µM (inactive) and the GI50 (UO-31) was 25.1 µM (inactive).
